Source: article PMC10399917 (Journal of Molecular Cell Biology, 2023)
Several values for one entry are separate records, joined by “and”; a condition that tells them apart may be missing. Equal values may be shown once. Read-outs that look alike come from different tables or passages of the source.

Experiments:
[1] = biological target: TMPRSS2–SPIKE interaction (His-TMPRSS2 and SPIKE-FLAG) (Severe acute respiratory syndrome coronavirus 2, UniProt P0DTC2); assay: biochemical; assay type: binding, SARS-CoV-2
[2] = biological target: TMPRSS2–SPIKE interaction (SmBiT-TMPRSS2 and SPIKE-LgBiT) (Severe acute respiratory syndrome coronavirus 2, UniProt P0DTC2); assay type: cell-based, SARS-CoV-2
[3] = tested on: SPIKE protein; conditions: ref Feng et al., 2020; cited from earlier work

| Structure (SMILES) | IC50 ([1]; IC50, TR-FRET signal) | Inhibition of NanoBiT signal [2] | Binding to the SPIKE protein [3] | IC50 ([1]; read-out: IC50, TR-FRET signal) |
| --- | --- | --- | --- | --- |
| O=C(/C=C/c1ccc(O)c(O)c1)OCCc1ccccc1 [CAPE, caffeic acid phenethyl ester] | 13.8 µM | dose-dependent inhibition |  |  |
| Cc1cc2c(C(C)C)c(O)c(O)c(C=O)c2c(O)c1-c1c(C)cc2c(C(C)C)c(O)c(O)c(C=O)c2c1O [gossypol acetate] | 0.69 µM | dose-dependent inhibition |  |  |
| CC1=NN(c2ccc(C)c(C)c2)C(=O)/C1=N\Nc1cccc(-c2cccc(C(=O)O)c2)c1O [eltrombopag olamine] | ~20 µM and 20.6 µM |  | bind to the SPIKE protein |  |
| N#C/C(=C/c1ccc(O)c(O)c1)C(=O)NCc1ccccc1 [AG-490] |  |  |  | ~19 µM |
| Cc1cc(C(C#N)c2ccc(Cl)cc2)c(Cl)cc1NC(=O)c1cc(I)cc(I)c1O (stereo not drawn) [closantel] | ~17 µM |  |  |  |
| CC(C)c1onc(-c2c(Cl)cccc2Cl)c1COc1ccc(/C=C/c2cccc(C(=O)O)c2)c(Cl)c1 [GW4064] |  |  |  | ~7 µM |
